In patent US20140066519A1, “USE OF XANTHOHUMOL AND/OR ISOXANTHOHUMOL AS AN AGENT FOR PREVENTING AND/OR COMBATING LIVER DISEASES” (FLAXAN GMBH & CO. KG, priority 2006, published 2014):

What was measured:
[1] = tested on: hepatic stellate cells; assay: transformation of quiescent hepatic stellate cells to activated hepatic stellate cells (FIGS. 6 and 7); type: cell-based; details: hepatic stellate cell activation, increasing dosage of xanthohumol
Source text: FIGS. 6 and 7 illustrate the effect of addition of xanthohumol for the prevention of transformation of the body's own physiologically “quiescent” (non-activated) hepatic stellate cells to activated hepatic stellate cells.
FIGS. 6 and 7 illustrate the effect of addition of xanthohumol for the prevention of transformation of the body's own, physiologically “quiescent” (non-activated) hepatic stellate cells to activated hepatic stellate cells, which are responsible for scarring of the liver in cirrhosis of the liver.

[2] = tested on: liver cancer cells (HepG2); assay: growth of liver cancer cells (HepG2) over time as a function of xanthohumol dosage (FIG. 5); type: cell-based; details: HepG2, increasing concentrations of xanthohumol, pure form (>98%)
[3] = tested on: tissue inhibitor of metalloproteinases 1 (TIMP-1) mRNA; assay: hepatic TIMP-1 mRNA expression in high fat diet mouse study (FIG. 18); type: in vivo; details: 500 mg/kgBW, 20 weeks
Source text: (§1) In vivo studies correlate with the in vitro studies. FIGS. 13-18 show comparative graphs of in vivo experimental data showing the effectiveness of xanthohumol when eating a high fat diet. The experiments involved using male C57BL/6N mice purchased from Charles River Laboratories (Sulzfeld, Germany). After two weeks of acclimatization, the mice were fed either standard diet (CTR), standard diet with xanthohumol (XN), high fat diet without providing xanthohumol (HFD), or high fat diet and xanthohumol (HFD+XN). High fat diet in the experiments included a NASH-inducing diet which includes sucrose, cholesterol, and fats rich in saturated fatty acids. In detail, the high fat diet included pork lard (15%), beef tallow (15%), palmitic acid (4%), stearic acid (4%), cholesterol (0.2%), and sucrose (30%). The feeding lasted for 20 weeks. Each experimental group had six mice. The XN and HFD+XN mice were provided with 500 mg of xanthohumol per kg of body weight (kgBW).
(§2) FIGS. 17 and 18 show charts of the detected measurement of hepatic mRNA expressions of Collagen Type I (Coll-I) and profibrogenic factor tissue inhibitor of metalloproteinases 1 (TIMP-1), respectively, of the mice from the experiments (*: p<0.05; normalized so that CTR is set to 1). These methodologies are established markers detecting hepatic fibrosis (e.g., fibrosis of the liver). […]

[4] = tested on: liver cells infected with hepatitis C (HUH7 HCV replicon); assay: efficacy on liver cells infected with hepatitis C vs non-infected liver cells (FIGS. 2 and 3); type: cell-based
Source text: Thus, use of the invention allows a targeted therapy for reduction or elimination of liver cells infected with the virus.

[5] = tested on: male C57BL/6N mice; assay: high fat diet (NASH-inducing diet) feeding study in mice, 20 weeks (FIGS. 13-15); type: in vivo; details: 500 mg/kgBW
Source text: as §1

[6] = tested on: proinflammatory cytokine tumor necrosis factor (TNF) mRNA; assay: hepatic TNF mRNA expression in high fat diet mouse study (FIG. 16); type: in vivo; details: 500 mg/kgBW, 20 weeks
Source text: as §1
The TNF measurement is an indicator of inflammation in the liver. The mice that ate high fat diet (HFD) had the highest level of TNF mRNA. […] The reduction was by more than 50% of the HFD mice, such that the TNF mRNA of the HFD+XN mice had nearly the same TNF mRNA level as the control mice (CTR). […]

[7] = tested on: activated hepatic stellate cells; assay: destruction (LDH) of activated hepatic stellate cells (FIG. 8); type: cell-based; details: increasing dosage of xanthohumol
[8] = tested on: liver cells; assay: in vitro tests of fat accumulation (steatosis) in liver cells; type: cell-based
Source text: Another effective method of preventing NASH 102 can be performed by inhibiting inflammation 108 of the liver even when eating a high fat diet. Another effective method of preventing NASH 102 can be performed by inhibiting fibrosis 110 of the liver even when eating a high fat diet. […] Inhibition of fat accumulation, inflammation, and/or fibrosis can also be an effective treatment for slowing down or preventing further progression of the liver disease state (including NASH). […] Inhibition of the reception of fatty acids into liver cells was determined in vitro tests and in vivo experiments.

[9] = tested on: Collagen Type I (Coll-I) mRNA; assay: hepatic Coll-I mRNA expression in high fat diet mouse study (FIG. 17); type: in vivo; details: 500 mg/kgBW, 20 weeks
Source text: as §1, §2

[10] = standard diet with xanthohumol (XN), mice
[11] = standard diet with xanthohumol (XN)

SMILES: COc1cc(O)c(CC=C(C)C)c(O)c1C(=O)/C=C/c1ccc(O)cc1 [xanthohumol]
- formation of scar tissue [1]: increasingly suppressed
- growth of the cancer cells [2]: progressively inhibited
- hepatic TIMP-1 mRNA compared to HFD mice ([3]; HFD+XN): substantial reductions
- hepatic TIMP-1 mRNA level [3, 10]: about the same as the control mice
- destruction of liver cells affected by the virus vs healthy liver cells ([4]; healthy liver cells left undamaged): selective destruction
- replication of the virus ([4]; hepatitis B and C viral damage to the liver): inhibit replication of the virus
- reduction of ALT level compared to HFD mice ([5]; HFD+XN): ~50%
- reduction of hepatic TG (mg(TG)/mg(protein)) compared to high fat diet without xanthohumol ([5]; HFD+XN): more than 50%
- ALT level [5, 11]: lowest detected levels
- hepatic TG (mg(TG)/mg(protein)) level [5, 11]: lowest detected levels
- reduction of TNF mRNA compared to HFD mice ([6]; HFD+XN): more than 50%
- TNF mRNA level [6, 10]: lowest detected levels
- destruction (LDH) of activated hepatic stellate cells [7]: increased effect of destruction
- viability of the liver cells ([8]; in vitro): does not affect the viability
- reception of fatty acids into liver cells (formation of steatosis) ([8]; in vitro tests and in vivo experiments): directly inhibits
- fatty degeneration of liver cells ([8]; in vitro, increased amount of xanthohumol): lessens fatty degeneration
- hepatic Coll-I mRNA compared to HFD mice ([9]; HFD+XN): substantial reductions
- hepatic Coll-I mRNA level [9, 10]: about the same as the control mice
